In patent US9564604B2, “Fused polycyclic aromatic compounds, organic semiconductor material and thin film including the same, and method for producing an organic semiconductor device” (Nippon Kayaku Kabushiki Kaisha, priority 2012, dated 2017):

What was measured:
[1] = Solubility measurement in chloroform (saturated solution); type: physicochemical; details: mass percent concentration of saturated chloroform solution
Description: Solubility was measured by using chloroform as solvent.

[2] = CV (cyclic voltammetry) measurement in dichloromethane; type: physicochemical; details: n-BuN4PF6 0.1 M, Pt electrodes, silver-silver chloride reference, 100 mV/sec
Description: CV measurement was conducted by using dichloromethane as solvent, tetrabutylammonium hexafluorophosphate (n-BuN4PF6, 0.1 M) as a supporting electrolyte, platinum wires as working electrodes and counter electrodes, and a silver-silver chloride electrodes as reference electrodes, and by sweeping the electric potential at a rate of 100 mV/sec. In all Compounds 101, 110, 112, 136, 201, 210, 212, 214, and 236, two pairs of oxidation-reduction waves were observed.

Structure (SMILES) | Solubility in chloroform [1] [w/w %] | first half-wave reduction potential [2] [V] | second half-wave reduction potential [2] [V]
CCCCCCCCCCCCc1cc2c(=C(C#N)C#N)cc3c(cc(=C(C#N)C#N)c4cc(CCCCCCCCCCCC)sc43)c2s1 [Compound 112] | 0.22 | 0.06 | −0.28
CCCCCCCCc1cc2c(=C(C#N)C#N)cc3c(cc(=C(C#N)C#N)c4cc(CCCCCCCC)sc43)c2s1 [Compound 110] | 0.52 | 0.06 | −0.28
CC(C)[Si](c1cc2c(=C(C#N)C#N)cc3c(cc(=C(C#N)C#N)c4cc([Si](C(C)C)(C(C)C)C(C)C)sc43)c2s1)(C(C)C)C(C)C [Compound 136] | – | 0.06 | −0.28

Second part, the compound after the results:

Solubility in chloroform [1] [w/w %] | first half-wave reduction potential [2] [V] | second half-wave reduction potential [2] [V] | Structure (SMILES)
– | 0.06 | −0.28 | CCCCCCCCCCCCc1cc2c(s1)c(=C(C#N)C#N)cc1c3cc(CCCCCCCCCCCC)sc3c(=C(C#N)C#N)cc21 [Compound 212]
– | 0.06 | −0.28 | CCCCCCCCCCCCCCCCc1cc2c(s1)c(=C(C#N)C#N)cc1c3cc(CCCCCCCCCCCCCCCC)sc3c(=C(C#N)C#N)cc21 [Compound 214]
– | 0.06 | −0.28 | N#CC(C#N)=c1cc2c3ccsc3c(=C(C#N)C#N)cc2c2ccsc12 [Compound 201]
– | 0.06 | −0.28 | CCCCCCCCc1cc2c(s1)c(=C(C#N)C#N)cc1c3cc(CCCCCCCC)sc3c(=C(C#N)C#N)cc21 [Compound 210]
